Results: ChEMBL document CHEMBL1156712, “CNS depressant and anticonvulsant activities of some novel 3-[5-substituted 1,3,4-thiadiazole-2-yl]-2-styryl quinazoline-4(3H)-ones” (Eur J Med Chem, 2008)
Active and inactive are the calls of the source. The calls are words filed in the database; no cut-off is given here.

Experiments:
[1] = system: Mus musculus; test: Anticonvulsant activity in mouse at 300 mg/kg, ip after 0.5 hrs by MES test; type: functional, organism-based; design: dose 300 mg/kg
[2] = system: Mus musculus; test: Anticonvulsant activity in mouse at 300 mg/kg, ip after 4 hrs by MES test; type: functional, organism-based; design: dose 300 mg/kg
[3] = system: Mus musculus; test: Anticonvulsant activity in ip dosed mouse after 0.5 hrs by scPTZ test; type: functional
[4] = system: Mus musculus; test: Anticonvulsant activity in mouse at 300 mg/kg, ip after 4 hrs by scPTZ test; type: functional, organism-based; design: dose 300 mg/kg
[5] = system: Mus musculus; test: Neurotoxicity in mouse assessed as minimal motor impairment at 300 mg/kg, ip after 0.5 hrs by rotarod test; type: toxicity, organism-based; design: dose 300 mg/kg, route intraperitoneal; conditions: in vivo
[6] = system: Mus musculus; test: Neurotoxicity in mouse assessed as minimal motor impairment at 300 mg/kg, ip after 4 hrs by rotarod test; type: toxicity, organism-based; design: dose 300 mg/kg, route intraperitoneal; conditions: in vivo
[7] = system: Mus musculus; test: Anticonvulsant activity in mouse at 300 mg/kg, ip after 0.5 hrs by scPTZ test; type: functional, organism-based; design: dose 300 mg/kg
[8] = system: Rattus norvegicus; test: Central nervous system depressant activity in Wistar rat assessed as immobility time at 100 mg/kg, po after 1 hr by forced swim pool test; type: functional
[9] = system: Mus musculus; test: Anticonvulsant activity in ip dosed mouse after 0.5 hrs by MES test; type: functional
[10] = system: Mus musculus; test: Anticonvulsant activity in ip dosed mouse after 4 hrs by MES test; type: functional
[11] = system: Mus musculus; test: Anticonvulsant activity in ip dosed mouse after 4 hrs by scPTZ test; type: functional
[12] = system: Mus musculus; test: Toxicity in mouse at 300 mg/kg, ip after 4 hrs; type: organism-based; design: dose 300 mg/kg, route intraperitoneal; conditions: in vivo
[13] = system: Mus musculus; test: Neurotoxicity in ip dosed mouse assessed as minimal motor impairment after 0.5 hrs by rotarod test; type: toxicity, organism-based; conditions: in vivo
[14] = system: Mus musculus; test: Neurotoxicity in ip dosed mouse assessed as minimal motor impairment after 4 hrs by rotarod test; type: toxicity, organism-based; conditions: in vivo
[15] = system: Mus musculus; test: Neurotoxicity in ip dosed mouse assessed as loss of righting reflux after 0.5 hrs; type: toxicity, organism-based; conditions: in vivo
[16] = system: Mus musculus; test: Neurotoxicity in ip dosed mouse assessed as minimal motor impairment at 100 mg/kg, ip after 1 hr by rotarod test; type: toxicity, organism-based; design: dose 100 mg/kg, route intraperitoneal; conditions: in vivo
[17] = system: Mus musculus; test: Neurotoxicity in ip dosed mouse assessed as minimal motor impairment at 100 mg/kg, ip after 0.25 hrs by rotarod test; type: toxicity, organism-based; design: dose 100 mg/kg, route intraperitoneal; conditions: in vivo

Row | SMILES | Activity [1] | Activity [2] | Activity [3] | Activity [4] | Activity [5] | Activity [6] | Activity [7] | Time [8] | Activity [9] | Active dose [10] | Activity [11] | Activity [12] | Activity [13] | Activity [14] | Activity [15] | Activity [16] | Activity [17]
1 | CCCC(CCC)C(=O)[O-].[Na+] [VALPROATE SODIUM] | inactive | inactive | 300 mg/kg | inactive | Non-toxic | Non-toxic |  |  |  |  |  |  |  |  |  |  | 
2 | O=c1c2ccccc2nc(/C=C/c2ccncc2)n1-c1nnc(-c2ccccc2)s1 | inactive | inactive |  | inactive | Non-toxic | Non-toxic | inactive | 83.23 s |  |  |  |  |  |  |  |  | 
3 | O=c1c2ccccc2nc(/C=C/c2ccc(Cl)cc2)n1-c1nnc(-c2ccccc2)s1 |  |  | 300 mg/kg |  | Non-toxic | Non-toxic |  | 103.26 s | 100 mg/kg | 300 mg/kg | 300 mg/kg | Toxic |  |  |  |  | 
4 | COc1ccc(-c2nnc(-n3c(/C=C/c4ccncc4)nc4ccccc4c3=O)s2)cc1 | inactive | inactive |  | inactive | Non-toxic | Non-toxic | inactive | 168.42 s |  |  |  |  |  |  |  |  | 
5 | O=c1c2ccccc2nc(/C=C/c2cccc(Cl)c2)n1-c1nnc(-c2cccc(Cl)c2)s1 | inactive | inactive |  | inactive | Non-toxic | Non-toxic | inactive | 175.83 s |  |  |  |  |  |  |  |  | 
6 | O=c1c2ccccc2nc(/C=C/c2ccc(Cl)cc2)n1-c1nnc(/C=C/c2ccccc2)s1 | inactive | inactive |  | inactive | Non-toxic | Non-toxic | inactive | 73.83 s |  |  |  |  |  |  |  |  | 
7 | CCC1(C)CC(=O)NC1=O (centres undefined) [ETHOSUXIMIDE] | inactive | inactive | 300 mg/kg | inactive | Non-toxic | Non-toxic |  |  |  |  |  |  |  |  |  |  | 
8 | O=C1NC(=O)C(c2ccccc2)(c2ccccc2)N1 [PHENYTOIN] |  |  |  | inactive |  |  | inactive |  | 30 mg/kg | 30 mg/kg |  |  | 100 mg/kg | 100 mg/kg |  |  | 
9 | Cc1ccc(-c2nnc(-n3c(/C=C/c4ccc(Cl)cc4)nc4ccccc4c3=O)s2)cc1 | inactive | inactive |  | inactive |  | Non-toxic | inactive | 150.1 s |  |  |  |  | 300 mg/kg |  |  |  | 
10 | Cc1ccc(-c2nnc(-n3c(/C=C/c4cccc(Cl)c4)nc4ccccc4c3=O)s2)cc1 | inactive | inactive |  | inactive | Non-toxic | Non-toxic | inactive | 100.76 s |  |  |  |  |  |  |  |  | 
11 | O=c1c2ccccc2nc(/C=C/c2ccncc2)n1-c1nnc(-c2ccc(Cl)cc2)s1 | inactive |  | 300 mg/kg |  |  | Non-toxic |  | 99.82 s |  | 100 mg/kg | 300 mg/kg |  | 300 mg/kg |  |  |  | 
12 | O=c1c2ccccc2nc(/C=C/c2ccncc2)n1-c1nnc(/C=C/c2ccccc2)s1 | inactive | inactive |  | inactive | Non-toxic | Non-toxic | inactive | 114.42 s |  |  |  |  |  |  |  |  | 
13 | NC(=O)N1c2ccccc2C=Cc2ccccc21 [CARBAMAZEPINE] |  |  | 100 mg/kg |  |  |  |  |  | 30 mg/kg | 100 mg/kg | 300 mg/kg |  | 100 mg/kg | 100 mg/kg |  |  | 
14 | COc1ccc(-c2nnc(-n3c(/C=C/c4cccc(Cl)c4)nc4ccccc4c3=O)s2)cc1 | inactive | inactive |  | inactive | Non-toxic | Non-toxic | inactive | 163.21 s |  |  |  |  |  |  |  |  | 
15 | O=c1c2ccccc2nc(/C=C/c2cccc(Cl)c2)n1-c1nnc(-c2ccccc2)s1 | inactive | inactive |  | inactive |  | Non-toxic | inactive | 132.69 s |  |  |  |  | 300 mg/kg |  | Toxic |  | 
16 | O=c1c2ccccc2nc(/C=C/c2ccc(Cl)cc2)n1-c1nnc(-c2ccc(Cl)cc2)s1 | inactive | inactive |  | inactive |  | Non-toxic | inactive | 117.93 s |  |  |  |  | 300 mg/kg |  |  |  | 
17 | O=c1c2ccccc2nc(/C=C/c2cccc(Cl)c2)n1-c1nnc(-c2ccc(Cl)cc2)s1 | inactive | inactive |  | inactive | Non-toxic | Non-toxic | inactive | 163.75 s |  |  |  |  |  |  |  |  | 
18 | O=c1c2ccccc2nc(/C=C/c2cccc(Cl)c2)n1-c1nnc(/C=C/c2ccccc2)s1 | inactive | inactive |  | inactive | Non-toxic | Non-toxic | inactive | 187.91 s |  |  |  |  |  |  |  |  | 
19 | O=c1c2ccccc2nc(/C=C/c2ccc(Cl)cc2)n1-c1nnc(-c2cccc(Cl)c2)s1 | inactive | inactive | 300 mg/kg |  |  | Non-toxic |  | 127.48 s |  |  | 300 mg/kg |  | 300 mg/kg |  |  | 100 mg/kg | 100 mg/kg
20 | Cc1ccc(-c2nnc(-n3c(/C=C/c4ccncc4)nc4ccccc4c3=O)s2)cc1 | inactive | inactive |  | inactive |  | Non-toxic | inactive | 131.51 s |  |  |  |  | 100 mg/kg |  |  |  | 
21 | COc1ccc(-c2nnc(-n3c(/C=C/c4ccc(Cl)cc4)nc4ccccc4c3=O)s2)cc1 | inactive | inactive |  | inactive |  |  | inactive | 177.08 s |  |  |  |  | 300 mg/kg | 300 mg/kg |  |  | 
22 | O=c1c2ccccc2nc(/C=C/c2ccncc2)n1-c1nnc(-c2cccc(Cl)c2)s1 | inactive | inactive |  | inactive |  |  | inactive | 142.36 s |  |  |  |  | 300 mg/kg | 300 mg/kg |  |  | 
